From patent US4732892A, “L-α-amino acids as transdermal penetration enhancers” (priority 1985, dated 1988)
Read-outs that look alike come from different tables or passages of the source. One block for each compound: values may come before it.

What was measured:
[1] = in vitro penetration of levonorgestrel across hairless mouse skin, modified Franz diffusion cell
Excerpt: In the examples, the steady state rate of penetration, or flux, is indicated by the symbol: Jss. The cumulative amount of drug penetrated is indicated by the Symbol: Q. The lag period to reach steady state is indicated by the symbol: tL. The standard deviation for statistical purposes is abbreviated: S.D. The standard error of the mean for statistical purposes is abbreviated S.E.M. Abbreviation "g" denotes grams, "mg" denotes milligram, "mcg" denotes micrograms and "ng" denotes nanograms.
Initially, twelve amino acids were selected for evaluation of their effect on the rate of penetration of levonorgestrel through hairless mouse skin. Differing amino acids were selected according to the structure of their side chain so that at least one amino acid from each of the seven different chemical groups was studied. […] These were incorporated into transdermal drug formulations and the corresponding rates of penetration were determined. […] A total of 36 out of a possible 48 formulations were evaluated. The effect of amino acid, pH and ionic species on the rate of penetration was then analyzed.
The amino acids were dissolved in distilled water and the pH was adjusted by addition of either 0.1 or 1.ON HCl or 1.0N NaOH. Ethanol was then added to give a final ethanol concentration of 40% w/w. The pH was monitored and recorded. […] 1%(w/w) levonorgestrel was suspended in this solvent system. Suspensions were applied to hairless mouse skin as described above.
The penetration of drug across hairless mouse skin was studied in vitro using a modified Franz diffusion cell apparatus as described by Y. W. Chien, P. R. Keshary, Y. C. Huany and P. P. Sarpotdar in "Comparative Controlled Skin Permeation of Nitroglycerin from Marketed Transdermal Delivery Systems," J. Pharmaceutical Sciences, Vol. 72, No. 8 August 1983, pp. 968-970. […] Samples were withdrawn at predetermined times up to a total of 10 hours.
Subsequently, rates of penetration were also determined (in hairless mouse skin a described above) for Norleucine, Norvaline and α-Amino-n-Butyric Acid.

[2] = pH values at which amino acids were tested; cited from earlier work
[3] = Table II, average of all data at all pH values, amino acid 0.2 M

Jss, steady state rate of penetration of levonorgestrel [1]: 1.5542 mcg/cm^2 /hr
effect on penetration at specific pHs, in words [1]: greatest affect on penetration
overall rate of penetration of levonorgestrel, ranking in words [1]: provided the highest rates
rate of penetration of levonorgestrel (in words) [1]: relatively high rates of penetration
Jss, steady state rate of penetration of levonorgestrel ([1]; pH 2.4): 0.921 mcg/cm^2 /hr
Jss, steady state rate of penetration of levonorgestrel ([1]; pH 4.5): 1.3328 mcg/cm^2 /hr
Jss, steady state rate of penetration of levonorgestrel ([1]; pH 6): 3.167 mcg/cm^2 /hr
Structure (SMILES): CC[C@H](C)[C@H](N)C(=O)O [Isoleucine, L-(+)-Isoleucine]

Jss, steady state rate of penetration of levonorgestrel [1]: 0.8462 mcg/cm^2 /hr
Jss, steady state rate of penetration of levonorgestrel ([1]; pH 2.3): 0.765 mcg/cm^2 /hr
Jss, steady state rate of penetration of levonorgestrel ([1]; pH 4.6): 1.0863 mcg/cm^2 /hr
Jss, steady state rate of penetration of levonorgestrel ([1]; pH 6.7): 0.688 mcg/cm^2 /hr
Structure (SMILES): O=C(O)[C@@H]1CCCN1 [Proline, L-(-)-Proline]

Jss, steady state rate of penetration of levonorgestrel [1]: 0.8628 mcg/cm^2 /hr
Jss, steady state rate of penetration of levonorgestrel ([1]; pH 4.7): 1.1287 mcg/cm^2 /hr
Jss, steady state rate of penetration of levonorgestrel ([1]; pH 5.7): 0.896 mcg/cm^2 /hr
Structure (SMILES): N[C@@H](CO)C(=O)O [Serine, L-(-)-Serine]

Jss, steady state rate of penetration of levonorgestrel [1]: 0.6033 mcg/cm^2 /hr
Jss, steady state rate of penetration of levonorgestrel ([1]; pH 3.2): 0.641 mcg/cm^2 /hr
Jss, steady state rate of penetration of levonorgestrel ([1]; pH 4.7): 0.6020 mcg/cm^2 /hr
Jss, steady state rate of penetration of levonorgestrel ([1]; pH 6.5): 0.567 mcg/cm^2 /hr
Structure (SMILES): N[C@@H](Cc1c[nH]c2ccccc12)C(=O)O [Tryptophan, L-(-)-Tryptophan]

Jss, steady state rate of penetration of levonorgestrel [1]: 1.8006 mcg/cm^2 /hr
effect on penetration at specific pHs, in words [1]: greatest affect on penetration
Jss, steady state rate of penetration of levonorgestrel ([1]; pH 2.4): 1.492 mcg/cm^2 /hr
Jss, steady state rate of penetration of levonorgestrel ([1]; pH 4.7): 1.7903 mcg/cm^2 /hr
Jss, steady state rate of penetration of levonorgestrel ([1]; pH 5.9): 2.276 mcg/cm^2 /hr
Structure (SMILES): CC(C)[C@H](N)C(=O)O [Valine, L-(+)-Valine]

Further lines, the compound ahead of its results:

Structure (SMILES): C[C@H](N)C(=O)O [Alanine, L-Alanine]
Jss, steady state rate of penetration of levonorgestrel [1]: 0.8553 mcg/cm^2 /hr
Jss, steady state rate of penetration of levonorgestrel ([1]; pH 4.8): 0.8553 mcg/cm^2 /hr

Structure (SMILES): N=C(N)NCCC[C@H](N)C(=O)O [Arginine, L-(+)-Arginine]
pHISO (isoelectric pH) [2]: 10.8
Jss, steady state rate of penetration of levonorgestrel [1, 3]: 0.8864 mcg/cm^2 /hr
Jss, steady state rate of penetration of levonorgestrel ([1]; Table VI, at pK2', pH 10.8): 1.012 mcg/cm^2 hr
Jss, steady state rate of penetration of levonorgestrel ([1]; pH 2.9): 0.688 mcg/cm^2 /hr
Jss, steady state rate of penetration of levonorgestrel ([1]; pH 4.2): 0.9590 mcg/cm^2 /hr
Jss, steady state rate of penetration of levonorgestrel ([1]; pH 10.8): 1.012 mcg/cm^2 /hr

Structure (SMILES): N[C@@H](CC(=O)O)C(=O)O [Aspartic Acid, L-(+)-Aspartic Acid]
Jss, steady state rate of penetration of levonorgestrel [1, 3]: 1.1538 mcg/cm^2 /hr
Jss, steady state rate of penetration of levonorgestrel ([1]; pH 4.4): 1.1538 mcg/cm^2 /hr

Structure (SMILES): N[C@@H](CS)C(=O)O [Cysteine, L-(+)-Cysteine]
Jss, steady state rate of penetration of levonorgestrel [1]: 1.6160 mcg/cm^2 /hr
effect on penetration at specific pHs, in words ([1]; Tables III-VI): greatest affect on penetration
overall rate of penetration of levonorgestrel, ranking in words ([1]; average of all pH values, P=0.05): provided the highest rates
Jss, steady state rate of penetration of levonorgestrel ([1]; pH 2.3): 2.154 mcg/cm^2 /hr
rate of penetration of levonorgestrel, ranking in words ([1]; pH 2.3 to 3.2 (pK1')): significantly increased rate
Jss, steady state rate of penetration of levonorgestrel ([1]; pH 4.9): 1.1635 mcg/cm^2 /hr
rate of penetration of levonorgestrel, ranking in words ([1]; pK2' (pH 8.6-10.8)): fastest rate of penetration

Structure (SMILES): N[C@@H](CCC(=O)O)C(=O)O [Glutamic Acid, L-Glutamic Acid]
pHISO (isoelectric pH) [2]: 3.8
Jss, steady state rate of penetration of levonorgestrel ([1]; Table II, average of all data at all pH values, amino acid 0.03 M): 0.8277 mcg/cm^2 /hr
Jss, steady state rate of penetration of levonorgestrel ([1]; Table VI, at pK2', pH 9.9): 0.450 mcg/cm^2 hr
Jss, steady state rate of penetration of levonorgestrel ([1]; pH 3.8): 0.842 mcg/cm^2 /hr
Jss, steady state rate of penetration of levonorgestrel ([1]; pH 4.6): 1.1910 mcg/cm^2 /hr
Jss, steady state rate of penetration of levonorgestrel ([1]; pH 9.9): 0.450 mcg/cm^2 /hr
rate of penetration of levonorgestrel (in words) ([1]; pH between 4.0 and 5.0): relatively high rates of penetration

Structure (SMILES): NCC(=O)O [Glycine]
effect of hundred-fold concentration difference on rate of penetration ([1]; Glycine buffer, previous experimentation): no significant difference in the rate of penetration
Jss, steady state rate of penetration of levonorgestrel ([1]; Table VI, at pK2', pH 9.6): 1.003 mcg/cm^2 hr
Jss, steady state rate of penetration of levonorgestrel ([1]; pH 2.4): 0.557 mcg/cm^2 /hr
Jss, steady state rate of penetration of levonorgestrel ([1]; pH 4.7): 1.2790 mcg/cm^2 /hr
Jss, steady state rate of penetration of levonorgestrel ([1]; pH 6.0): 0.532 mcg/cm^2 /hr
Jss, steady state rate of penetration of levonorgestrel ([1]; pH 9.6): 1.003 mcg/cm^2 /hr

Structure (SMILES): C#C[C@]1(O)CC[C@H]2[C@@H]3CCC4=CC(=O)CC[C@@H]4[C@H]3CC[C@@]21CC [Levonorgestrel, reference compound]
effect of pH on rate of penetration ([1]; amino acid present in the formulation): not affected significantly by changing pH
Average rate of penetration of levonorgestrel in the presence of amino acids ([1]; pH 2.5): 1.0980 mcg/cm^2 /hr
Average rate of penetration of levonorgestrel in the presence of amino acids ([1]; pH 4.5): 1.1279 mcg/cm^2 /hr
Average rate of penetration of levonorgestrel in the presence of amino acids ([1]; pH 6.1): 1.2798 mcg/cm^2 /hr
Average rate of penetration of levonorgestrel in the presence of amino acids ([1]; pH 9.6): 1.0598 mcg/cm^2 /hr
